According to ChEMBL document CHEMBL1614631, “Comparative evaluation of oral systemic exposure of 56 xenobiotics in rat, dog, monkey and human” (Xenobiotica, 2005):

What was measured:
[1] = Dose normalised AUC in rat after po administration; conditions: in vivo
[2] = Dose normalised AUC in dog after po administration; conditions: in vivo
[3] = Dose normalised AUC in monkey after po administration; conditions: macaca, in vivo
[4] = Dose normalised AUC in human after po administration; conditions: in vivo

Q: Which results are given for `Cc1cccc(C)c1NC(=O)NCCCNC(C)C` [RECAINAM]?
A: DNAUC [1]: 6.3 kg·min/L; DNAUC [2]: 72.4 kg·min/L; DNAUC [3]: 48 kg·min/L; DNAUC [4]: 98.57 kg·min/L

Q: Which DNAUC [1] does the source give for `CC(C)(C)S(=O)(=O)C[C@@H](Cc1ccccc1)C(=O)N[C@@H](Cc1cnc[nH]1)C(=O)N[C@@H](CC1CCCCC1)[C@@H](O)[C@@H](O)C1CC1` [REMIKIREN] here?
A: Its DNAUC is 0.25 kg·min/L.

Q: What about the DNAUC [2] of the same compound?
A: Its DNAUC is 0.63 kg·min/L.

Q: And the DNAUC [3]?
A: The DNAUC was 0.14 kg·min/L.

Q: And the DNAUC [4]?
A: The DNAUC was 0.2 kg·min/L.

Q: What does the source list for `CC(C)c1nc(CN(C)C(=O)N[C@H](C(=O)N[C@@H](Cc2ccccc2)C[C@H](O)[C@H](Cc2ccccc2)NC(=O)OCc2cncs2)C(C)C)cs1` [RITONAVIR]?
A: DNAUC [1]: 41.59 kg·min/L; DNAUC [2]: 101.08 kg·min/L; DNAUC [3]: 27.18 kg·min/L; DNAUC [4]: 370.17 kg·min/L

Q: Which results are given for `COc1nccc(-c2c(-c3ccc(F)cc3)ncn2C2CCNCC2)n1` [SB-242235]?
A: DNAUC [1]: 37.61 kg·min/L; DNAUC [2]: 147.59 kg·min/L; DNAUC [3]: 115.9 kg·min/L; DNAUC [4]: 141 kg·min/L

Q: Which results are given for `CN1C(C(=O)Nc2nccs2)=C(O)c2ccccc2S1(=O)=O` [SUDOXICAM]?
A: DNAUC [1]: 4415.2 kg·min/L; DNAUC [2]: 5554 kg·min/L; DNAUC [3]: 3821.3 kg·min/L; DNAUC [4]: 8161.43 kg·min/L

Q: For `CC(C(=O)O)c1ccc(C(=O)c2cccs2)cc1` (centres undefined) [SUPROFEN], which DNAUC [1] is on record?
A: The DNAUC was 320 kg·min/L.

Q: And the DNAUC [2]?
A: Its DNAUC is 1108 kg·min/L.

Q: And the DNAUC [3]?
A: Its DNAUC is 355 kg·min/L.

Q: What about the DNAUC [4] of the same compound?
A: The DNAUC was 619.76 kg·min/L.

Q: With `O=P(O)(O)C(Sc1ccc(Cl)cc1)P(=O)(O)O` [TILUDRONIC ACID] as the compound, how does the DNAUC [1] read?
A: The DNAUC was 37.2 kg·min/L.

Q: And the DNAUC [2]?
A: The DNAUC was 129.6 kg·min/L.

Q: And the DNAUC [3]?
A: Its DNAUC is 171.6 kg·min/L.

Q: What about the DNAUC [4] of the same compound?
A: Its DNAUC is 286.32 kg·min/L.

Q: With `Cc1c(C)c2c(c(C)c1O)CCC(C)(COc1ccc(CC3SC(=O)NC3=O)cc1)O2` (centres undefined) [TROGLITAZONE] as the compound, how does the DNAUC [1] read?
A: Its DNAUC is 13.44 kg·min/L.

Q: And the DNAUC [2]?
A: Its DNAUC is 61.2 kg·min/L.

Q: What about the DNAUC [3] of the same compound?
A: The DNAUC was 34.08 kg·min/L.

Q: And the DNAUC [4]?
A: Its DNAUC is 80.71 kg·min/L.

Q: What does the source list for `N[C@@H]1[C@H]2CN(c3nc4c(cc3F)c(=O)c(C(=O)O)cn4-c3ccc(F)cc3F)C[C@@H]12` [TROVAFLOXACIN]?
A: DNAUC [1]: 51 kg·min/L; DNAUC [2]: 44.25 kg·min/L; DNAUC [3]: 120.6 kg·min/L; DNAUC [4]: 540 kg·min/L

Q: With `COc1ccc(C(CN(C)C)C2(O)CCCCC2)cc1` (centres undefined) [VENLAFAXINE] as the compound, how does the DNAUC [1] read?
A: The DNAUC was 1.97 kg·min/L.

Q: What about the DNAUC [2] of the same compound?
A: Its DNAUC is 48 kg·min/L.

Q: And the DNAUC [3]?
A: The DNAUC was 1.8 kg·min/L.

Q: And the DNAUC [4]?
A: Its DNAUC is 1 kg·min/L.

Q: Which results are given for `NS(=O)(=O)Cc1noc2ccccc12` [ZONISAMIDE]?
A: DNAUC [1]: 663 kg·min/L; DNAUC [2]: 1458 kg·min/L; DNAUC [3]: 2097 kg·min/L; DNAUC [4]: 3030 kg·min/L
